Source: patent US10561716B2, “Prostate cancer vaccine” (Wisconsin Alumni Research Foundation, priority 2006, dated 2020)
Entries after “also recorded” stand apart in the source; their conditions may differ.

Legend:
[1] = system: peptide-loaded T2 cells; assay: Cytotoxicity assay (LDH) of peptide-specific patient T-cell cultures against peptide-loaded T2 cells; assay type: cell-based, human; conditions: for Peptide-specific lysis (Number of patients): patients of eleven HLA-A2-expressing prostate cancer patients with peptide-specific T cells after 2-4 in vitro stimulations; for Peptide-specific lysis of T2 cells by peptide-specific T-cells (FIG. 6): patient T-cell lines, three effector-to-target ratios
Method: (§1) Human prostate cancer patients underwent leukapheresis, and PBMCs were isolated using a Ficoll-Paque gradient (Pharmacia, Kirkland, Quebec). Immature dendritic cells (iDCs) were generated by incubating flask-adherent PBMCs with 20 ng/mL granulocyte-macrophage colony stimulating factor and 10 ng/mL interleukin four (IL-4) for six days at 37° C./5% CO2 (cytokines from: Fitzgerald Industries, Concord, Mass.). These iDCs were then treated with 150 ng/mL IL-6, 10 ng/mL IL-1β, 10 ng/mL tumor necrosis factor alpha (TNF-α), and […] prostaglandin E2 (Fitzgerald Industries) to generate mature dendritic cells (mDCs). These mDCs were then pulsed with 20 μg/mL AR LBD-derived peptide, and after being irradiated were co-incubated with CD4+ and CD8+ T-cells negatively isolated from autologous PBMCs (Invitrogen, Carlsbad, Calif.). After incubating for 24 hours, these cultures were then treated with 10 U/mL IL-2 and 30 U/mL IL-7 (Fitzgerald Industries), and incubated for another 6 days. These cultured T-cells were re-stimulated weekly using peptide-pulsed antigen presenting cells (either mDCs or the TK6 lymphoma cell line).
(§2) T-cell cultures that underwent at least two stimulations (or splenocyte cultures that had undergone one stimulation) were collected and incubated for four hours with target cells (either T2 cells pulsed for two hours with a specific or non-specific peptide, the LNCaP prostate cancer cell line, or media alone) at various effector-to-target ratios. After incubation, supernatants were collected and levels of lactate dehydrogenase were measured using the CytoTox 96 Non-Radioactive Assay (Promega). The relative percentage of peptide-specific lysis was quantitated using the following equation: […]
(§3) To characterize CD8+ T-cell responses to the AR LBD, the amino acid sequence of the AR LBD was evaluated for potential HLA-A2-binding epitopes that fit the consensus peptide binding sequence of X-L/M-X-X-X-V-X-X-V/L (SEQ ID NO:8), using the algorithm of Parker and colleagues (Parker K C et al., 1994, J. Immunol. 152:163-175). […] These peptides were synthesized and then characterized for their affinity for HLA-A2 in vitro using T2 binding assays. […] Peptide-specific T-cell lines were then cultured from the peripheral blood of 11 HLA-A2^+ patients with prostate cancer, using each of these peptides, and then tested for their cytolytic activity against both peptide-pulsed HLA-A2-expressing target cells and the HLA-A2^+ LNCaP prostate cancer cell line. Specifically, naive T cells were isolated by magnetic negative selection (Dynal) from the peripheral blood mononuclear cells (PBMCs) of HLA-A2-expressing prostate cancer patients, and cultured in the presence of autologous cytokine-matured irradiated dendritic cells (mDC) that had been loaded with individual peptides. These cultures received interleukin 2 (IL-2) and IL-7 the day after the culture, and were re-stimulated weekly with peptide-pulsed mDCs. Beginning after two weeks of stimulation, the T-cell cultures were tested weekly for their cytolytic activity using peptide-loaded T2 cells as target cells. Peptide-specific T-cells could be cultured from the majority of patients to at least one of these peptides, and peptide-specific T-cell lines could be cultured from the majority (7/11) of HLA-A2-expressing patients against the AR811 peptide in particular (Table 2).
(§4) Table 2. Compiled results of T cell culturing and cytotoxicity assays. Shown in this table are the results obtained from cytotoxicity assays of T cell cultures from eleven HLA-A2-expressing patients with prostate cancer. In the second column is the number of patients for which peptide-specific T cells could be identified following 2-4 in vitro stimulations.

[2] = system: HLA-A2+ LNCaP prostate cancer cell line; assay: Cytotoxicity assay (LDH) of peptide-specific patient T-cell cultures against LNCaP; assay type: cell-based, human; set-up: key to Prostate cancer cell lysis: +: positive lysis; −: no lysis; +/−: inconclusive; conditions: for Prostate cancer cell lysis: peptide-specific T cells against HLA-A2+ LNCaP; for Lysis of the LNCaP cell line by peptide-specific T-cells (FIG. 6): patient T-cell lines, three effector-to-target ratios
Method: as §1, §2, §3, §4

[3] = system: IFNγ and TNFα; assay: Intracellular cytokine staining of AR811-specific T-cell clone; assay type: cell-based, human; conditions: clone restimulated with peptide, gated on CD3+/CD8+ cells
Method: A clonal T-cell line specific for the AR811 peptide was derived by limited dilution following multiple restimulations in vitro. This line was restimulated for 5 hours in vitro with T2 cells and media only (panel A), an irrelevant peptide (panel B), AR811 peptide (panel C), or PMA/Ionomycin (panel D). IFNγ and TNFα cytokine accumulation were assessed by intracellular flow cytometric analysis (Cytofix/cytoperm kit, BD Pharmingen). Cells were first stained for CD3 and CD8 expression and CD3+/CD8+ cells were analyzed for IFNγ and TNFα expression. Shown are the plots gated on CD3+/CD8+ cells.
After T-cell cultures containing AR LBD peptide-specific T-cells were identified, peptide-specific T-cell clones were isolated using limited-dilution cloning. Briefly, cultured T-cells were diluted to 400 cells/mL, and were diluted at a 1:1 ratio down the rows of a 96-well plate. These T-cells were mixed with 2×10^5 autologous PBMCs, as well as an anti-CD3 antibody (Clone UCHT1, BD Biosciences, 120 ng/mL) and IL-2 (Fitzgerald Industries, 200 U/mL), and were incubated at 37° C./5% CO2 for 12-14 days. Cultures generated from a single cell were identified, and their peptide-specificity was analyzed using a mini-cytotoxicity assay (as above). […] After three additional days, expanded T-cell clones were analyzed for cytotoxicity against peptide-specific or non-specific T2-pulsed cells (as described above). […]

[4] = system: prostate cancer cell lines (LNCaP, MDA-Pca-2B, DU145); assay: Cytotoxicity of AR811 CD8+ T-cell clone against prostate cancer cell lines, with HLA-A2 blocking antibody; assay type: cell-based, human; conditions: HLA-A2-negative DU145
Method: In addition, lysis was evaluated following pre-treatment of LNCaP with an HLA-A2 blocking monoclonal antibody (starburst). Shown is a cytotoxicity assay of an AR811 CD8+ cell clone. Cells were restimulated for seven days using peptide-pulsed antigen presenting cells, followed on day seven by a rest period of three days before they were analyzed for their cytotoxic activity.
To conduct a mini-cytotoxicity assay of limited-dilution clones, 50 μl (¼) of the cultured clones were incubated for four hours with either T2 cells pulsed with the specific peptide, a non-specific peptide, or media alone. For the subsequent characterization of CTL clone cytotoxicity against prostate cancer cells, cryopreserved CTL clones were thawed, washed 3 times, and restimulated by incubating the clones with peptide-pulsed irradiated TK6 cells for 7 days. These clones were then resuspended in 10 U/mL IL-2, and allowed to incubate for three days at 37° C./5% CO2. They were then analyzed for cytotoxicity (as described above) against four prostate cancer cell lines: LNCaP, DU145, LAPC4, and MDAPCa-2b cell lines. To characterize HLA-A2-restriction of observed cytotoxicity, a HLA-A2 antibody was added to the reaction (Clone BB7.2, BD Biosciences, 1 μg/mL).

[5] = system: T2 cells pulsed with the AR811 peptide; assay: Immunization of HLA-A2/DR1 (HHD-II) mice with peptide, splenocyte CTL assay; assay type: in vivo; conditions: once 100 μg peptide in CFA, splenocytes after one week

| Sequence | Peptide-specific lysis (Number of patients) [1] | Prostate cancer cell lysis [2] | Peptide-specific lysis of T2 cells by peptide-specific T-cells (FIG. 6) [1] | Lysis of the LNCaP cell line by peptide-specific T-cells (FIG. 6) [2] | IFNγ and TNFα secretion of peptide-specific T-cell clone (FIG. 7) [3] | Lysis of prostate cancer cells by AR811 T-cell clone, HLA-A2 restriction (FIG. 8) [4] | Peptide-specific CTL after immunization (FIG. 9) [5] |
| --- | --- | --- | --- | --- | --- | --- | --- |
| FSIIPVDGL [AR814] | 3/11 | − |  |  |  |  |  |
| LLLFSIIPV [AR811] | 7/11 | + | lyse T2 cells in a peptide-specific fashion | could lyse the LNCaP cell line | secrete both IFNγ and TNFα in response to peptide stimulation; also recorded: secretes IFNγ and TNFα in response to peptide stimulation | lysed prostate cancer cells in an MHC class I-restricted fashion; also recorded: naturally processed HLA-A2-restricted T-cell epitope | AR811 peptide-specific CTL could be identified after immunization; also recorded: develop peptide-specific CTL |
| FLCMKALLL [AR805] | 3/11 | +/− |  |  |  |  |  |
| ALLSSLNEL [AR700] | 1/11 | − |  |  |  |  |  |
| QLTKLLDSV [AR859] | 2/11 | +/− | showed peptide-specific lysis | did not lyse the LNCaP cell line |  |  |  |
| LGERQLVHVV [AR708] | 1/11 | − |  |  |  |  |  |
| KLLDSVQPI [AR862] | 5/11 | − |  |  |  |  |  |
| WMGLMVFAM [AR742] | 2/11 | − |  |  |  |  |  |
| RMLYFAPDLV [AR761] | 6/11 | +/− |  |  |  |  |  |
| VLEAIEPGV [AR677] | 2/11 | − |  |  |  |  |  |
